Measured values from patent US20170105997A1, “METHODS OF TREATING CANCER” (Northwestern University, priority 2014, published 2017).

Assays:
Assay type in all cases: cell-based
[1] = system: KMS-11; test: gIC50 in multiple myeloma cell line KMS-11 treated with EZH2 inhibitors; conditions: Homo sapiens, t(4;14)+
Procedure: (§1) All cells were grown in RPMI 1640 (Invitrogen) supplemented with 10% heat-inactivated FBS and 1% penicillin/streptomycin.
(§2) Cells were treated with the EZH2 inhibitors below. GSK2816126A is also known as GSK126 and is a compound of Formula I, specifically Compound B as described herein. Data in Table I was used to generate the data in FIG. 14. EZH2 inhibitors of Formula II, III, and IV and Compound C are used to generate gIC50 values and similar results as with GSK126 are found. Additional cell lines are tested with EZH2 inhibitors of Formula I, II, III, IV, Compound B, and Compound C and an improved cell killing, e.g. as measured by gIC50, is seen in cell lines having an increased level of MMSET expression, or a decreased level of UTX enzyme, or both, as compared to a control, e.g. a tissue typed control sample not characterized as having cancerous attributes.

[2] = system: OpM2; test: gIC50 in multiple myeloma cell line OpM2 treated with EZH2 inhibitors; conditions: Homo sapiens, OPM-2, t(4;14)+, UTX Het c.197G>A p.G66D
Procedure: as §1, §2

[3] = system: KMS-12-BM; test: gIC50 in multiple myeloma cell line KMS-12-BM treated with EZH2 inhibitors; conditions: Homo sapiens, MMSET none, UTX Hom del exons 5-12
Procedure: as §1, §2

[4] = system: LP1; test: gIC50 in multiple myeloma cell line LP1 treated with EZH2 inhibitors; conditions: Homo sapiens, LP-1, t(4;14)+, UTX Hom 1621C>T (Q541X)
Procedure: as §1, §2

[5] = system: RPMI-8226; test: gIC50 in multiple myeloma cell line RPMI-8226 treated with EZH2 inhibitors; conditions: Homo sapiens, MMSET none, UTX wt
Procedure: as §1, §2

CC[C@H](C)n1cc(C)c2c(C(=O)NCc3c(C)cc(C)[nH]c3=O)cc(-c3ccc(N4CCNCC4)nc3)cc21 [GSK2816126A]
IC50 [1]: 3020 nM | IC50 [2]: 861 nM | IC50 [3]: 2570 nM | IC50 [4]: 2380 nM | IC50 [5]: 1680 nM
